# According to ChEMBL document CHEMBL3885881, “DrugMatrix”:
# Species: Rattus norvegicus
# Test: DrugMatrix - Regimen: Daily Repeat
# Type: toxicity, organism-based, Sprague-Dawley
# Parameters: regimen Daily Repeat, gender Male, age 6-8 weeks
# Conditions: in vivo, po, 5 mg/kg, route oral GAVAGE, dose level High, vehicle .5 % CMC; for ABSOLUTE BASOPHIL / ABSOLUTE EOSINOPHIL / ABSOLUTE LYMPHOCYTE / ABSOLUTE MONOCYTE / ABSOLUTE SEGMENTED NEUTROPHIL / BASOPHIL / EOSINOPHIL / ERYTHROCYTE COUNT / HEMATOCRIT / HEMOGLOBIN / LEUKOCYTE COUNT / LYMPHOCYTE / MEAN CORPUSCULAR HEMOGLOBIN / MEAN CORPUSCULAR HEMOGLOBIN CONCENTRATION / MEAN CORPUSCULAR VOLUME / MONOCYTE / NEUTROPHIL / NUCLEATED RED BLOOD CELLS / PLATELET COUNT: tissue Blood; for ALANINE AMINOTRANSFERASE / ALBUMIN / ALKALINE PHOSPHATASE / ASPARTATE AMINOTRANSFERASE / BLOOD UREA NITROGEN / CARBON DIOXIDE / CHLORIDE / CHOLESTEROL / CREATINE PHOSPHOKINASE / CREATININE / GLUCOSE / LACTATE DEHYDROGENASE / LIPASE / PHOSPHORUS / POTASSIUM / SODIUM / TOTAL BILIRUBIN / TOTAL PROTEIN / URIC ACID: tissue Plasma
structure (smiles),measurement,setting,value
Nc1c(CC(=O)O)cccc1C(=O)c1ccc(Br)cc1 [BROMFENAC],ABSOLUTE BASOPHIL,"72 h, time 3 day",0 CELLS/uL
same,ABSOLUTE EOSINOPHIL,"72 h, time 3 day",0 CELLS/uL
same,ABSOLUTE LYMPHOCYTE,"72 h, time 3 day",5201.4 CELLS/uL
same,ABSOLUTE MONOCYTE,"72 h, time 3 day",116 CELLS/uL
same,ABSOLUTE SEGMENTED NEUTROPHIL,"72 h, time 3 day",1982.6 CELLS/uL
same,BASOPHIL,"72 h, time 3 day",0%
same,EOSINOPHIL,"72 h, time 3 day",0%
same,ERYTHROCYTE COUNT,"72 h, time 3 day",4.97 x10E6/uL
same,HEMATOCRIT,"72 h, time 3 day",30.78%
same,HEMOGLOBIN,"72 h, time 3 day",11.8 G/DL
same,LEUKOCYTE COUNT,"72 h, time 3 day",7.3 x10E3/uL
same,LYMPHOCYTE,"72 h, time 3 day",72.6%
same,MEAN CORPUSCULAR HEMOGLOBIN,"72 h, time 3 day",23.92 pg
same,MEAN CORPUSCULAR HEMOGLOBIN CONCENTRATION,"72 h, time 3 day",38.52 G/DL
same,MEAN CORPUSCULAR VOLUME,"72 h, time 3 day",62.06 fL
same,MONOCYTE,"72 h, time 3 day",1.8%
same,NEUTROPHIL,"72 h, time 3 day",25.6%
same,NUCLEATED RED BLOOD CELLS,"72 h, time 3 day",0 /100WBC
same,PLATELET COUNT,"72 h, time 3 day",593.4 x10E3/uL
same,ALANINE AMINOTRANSFERASE,"72 h, time 3 day",100 u/L
same,ALBUMIN,"72 h, time 3 day",3.64 G/DL
same,ALKALINE PHOSPHATASE,"72 h, time 3 day",337.8 u/L
same,ASPARTATE AMINOTRANSFERASE,"72 h, time 3 day",193.2 u/L
same,BLOOD UREA NITROGEN,"72 h, time 3 day",10.2 mg/dL
same,CARBON DIOXIDE,"72 h, time 3 day",31.2 mmol/L
same,CHLORIDE,"72 h, time 3 day",103.4 MEQ/L
same,CHOLESTEROL,"72 h, time 3 day",84.6 mg/dL
same,CREATINE PHOSPHOKINASE,"72 h, time 3 day",304.4 u/L
same,CREATININE,"72 h, time 3 day",0.19 mg/dL
same,GLUCOSE,"72 h, time 3 day",147.4 mg/dL
same,LACTATE DEHYDROGENASE,"72 h, time 3 day",116.6 u/L
same,LIPASE,"72 h, time 3 day",8.4 u/L
same,PHOSPHORUS,"72 h, time 3 day",11.14 mg/dL
same,POTASSIUM,"72 h, time 3 day",5.44 MEQ/L
same,SODIUM,"72 h, time 3 day",146.66 MEQ/L
same,TOTAL BILIRUBIN,"72 h, time 3 day",0.14 mg/dL
same,TOTAL PROTEIN,"72 h, time 3 day",5.36 G/DL
same,URIC ACID,"72 h, time 3 day",0.76 mg/dL
same,ABSOLUTE BASOPHIL,"120 h, time 5 day",0 CELLS/uL
same,ABSOLUTE EOSINOPHIL,"120 h, time 5 day",23.5 CELLS/uL
same,ABSOLUTE LYMPHOCYTE,"120 h, time 5 day",8259.25 CELLS/uL
same,ABSOLUTE MONOCYTE,"120 h, time 5 day",191.75 CELLS/uL
same,ABSOLUTE SEGMENTED NEUTROPHIL,"120 h, time 5 day",1625.5 CELLS/uL
same,BASOPHIL,"120 h, time 5 day",0%
same,EOSINOPHIL,"120 h, time 5 day",0.25%
same,ERYTHROCYTE COUNT,"120 h, time 5 day",4.46 x10E6/uL
same,HEMATOCRIT,"120 h, time 5 day",28.57%
same,HEMOGLOBIN,"120 h, time 5 day",11 G/DL
same,LEUKOCYTE COUNT,"120 h, time 5 day",10.1 x10E3/uL
same,LYMPHOCYTE,"120 h, time 5 day",81.75%
same,MEAN CORPUSCULAR HEMOGLOBIN,"120 h, time 5 day",24.82 pg
same,MEAN CORPUSCULAR HEMOGLOBIN CONCENTRATION,"120 h, time 5 day",38.55 G/DL
same,MEAN CORPUSCULAR VOLUME,"120 h, time 5 day",64.3 fL
same,MONOCYTE,"120 h, time 5 day",2%
same,NEUTROPHIL,"120 h, time 5 day",16%
same,NUCLEATED RED BLOOD CELLS,"120 h, time 5 day",0.5 /100WBC
same,PLATELET COUNT,"120 h, time 5 day",1087.25 x10E3/uL
same,ALANINE AMINOTRANSFERASE,"120 h, time 5 day",38.5 u/L
same,ALBUMIN,"120 h, time 5 day",3.65 G/DL
same,ALKALINE PHOSPHATASE,"120 h, time 5 day",255.67 u/L
same,ASPARTATE AMINOTRANSFERASE,"120 h, time 5 day",60 u/L
same,BLOOD UREA NITROGEN,"120 h, time 5 day",13.75 mg/dL
same,CARBON DIOXIDE,"120 h, time 5 day",31.5 mmol/L
same,CHLORIDE,"120 h, time 5 day",101.67 MEQ/L
same,CHOLESTEROL,"120 h, time 5 day",80.25 mg/dL
same,CREATINE PHOSPHOKINASE,"120 h, time 5 day",189 u/L
same,CREATININE,"120 h, time 5 day",0.15 mg/dL
same,GLUCOSE,"120 h, time 5 day",141.25 mg/dL
same,LACTATE DEHYDROGENASE,"120 h, time 5 day",82.25 u/L
same,LIPASE,"120 h, time 5 day",8.25 u/L
same,PHOSPHORUS,"120 h, time 5 day",10.7 mg/dL
same,POTASSIUM,"120 h, time 5 day",5.87 MEQ/L
same,SODIUM,"120 h, time 5 day",145.27 MEQ/L
same,TOTAL BILIRUBIN,"120 h, time 5 day",0.13 mg/dL
same,TOTAL PROTEIN,"120 h, time 5 day",5.8 G/DL
same,URIC ACID,"120 h, time 5 day",0.57 mg/dL
